According to patent publication US20100267561A1, “HERBICIDAL PYRIDAZINONE DERIVATIVES” (priority 2007, published 2010):

Key:
Assay in all cases: Test B pre-/postemergence plant response
Assay type in all cases: in vivo
[1] = system: Russian thistle (Salsola iberica); details: Preemergence
Procedure, shortened: (§1)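 Visual scoring from 0 (no effect) to 100 (complete control) against untreated controls was done 13 to 15 days after greenhouse treatment. Chemicals were formulated in a surfactant-containing non-phytotoxic solvent and applied to soil preemergence or to 1- to 4-leaf (2-18 cm) plants postemergence.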

[2] = system: bermudagrass (Cynodon dactylon); details: for Bermudagrass plant response rating: 8 g ai/ha
Procedure, shortened: as §1

[3] = system: blackgrass (Alopecurus myosuroides); details: for Blackgrass plant response rating: 8 g ai/ha
Procedure, shortened: as §1

[4] = system: catchweed bedstraw (Galium aparine); details: Preemergence
Procedure, shortened: as §1

[5] = system: cocklebur (Xanthium strumarium); details: for Cocklebur plant response rating: 8 g ai/ha
Procedure, shortened: as §1

corn (Zea mays) = details: for Corn plant response rating: 8 g ai/ha
Procedure, shortened: as §1

[6] = system: downy bromegrass (Bromus tectorum); details: for Bromegrass, Downy plant response rating: 8 g ai/ha
Procedure, shortened: as §1

kochia (Kochia scoparia) = details: for Plant response rating, Kochia: Postemergence
Procedure, shortened: as §1

[7] = system: lambsquarters (Chenopodium album); details: for Lambsquarters plant response rating: 8 g ai/ha
Procedure, shortened: as §1

[8] = system: morningglory (Ipomoea coccinea); details: for Morningglory plant response rating: 8 g ai/ha
Procedure, shortened: as §1

soybean (Glycine max) = details: for Soybean plant response rating: 8 g ai/ha
Procedure, shortened: as §1

[9] = system: surinam grass (Brachiaria decumbens); details: for Surinam Grass plant response rating: 8 g ai/ha
Procedure, shortened: as §1

[10] = system: wheat (Triticum aestivum); details: for Wheat plant response rating: 8 g ai/ha
Procedure, shortened: as §1

[11] = system: yellow nutsedge (Cyperus esculentus); details: for Nutsedge, Yellow plant response rating: 8 g ai/ha
Procedure, shortened: as §1

[12] = 16 g ai/ha, scale 0 to 100 (0 no effect, 100 complete control)
[13] = Postemergence, 16 g ai/ha, scale 0 to 100
[14] = Postemergence, 31 g ai/ha, scale 0 to 100, 0 no effect, 100 complete control
[15] = Postemergence, 62 g ai/ha, scale 0 to 100, 0 no effect, 100 complete control
[16] = Preemergence, 16 g ai/ha, scale 0 to 100 (0 no effect, 100 complete control)
[17] = Preemergence, 31 g ai/ha, 0 to 100 scale, 0 no effect, 100 complete control
[18] = Preemergence, 62 g ai/ha, scale 0 to 100

Cc1cc(-c2ccc(Cl)cc2)nn1-c1c(OS(C)(=O)=O)cnn(C)c1=O [Compound 36]
Plant response rating, Russian Thistle [1, 12]: 0 | Plant response rating, Russian Thistle ([1]; 62 g ai/ha, scale 0 to 100): 80 | Russian Thistle plant response rating ([1]; 8 g ai/ha, scale 0 to 100): 0 | Bermudagrass plant response rating ([2]; postemergence, 0-100 scale): 40 | Plant response rating, Bermudagrass [2, 13]: 80 | Plant response rating, Bermudagrass [2, 14]: 100 | Plant response rating, Bermudagrass [2, 15]: 100 | Bermudagrass plant response rating ([2]; Preemergence, scale 0 to 100 (0 no effect, 100 complete control)): 98 | Plant response rating, Bermudagrass [2, 16]: 100 | Plant response rating, Bermudagrass [2, 17]: 100 | Plant response rating, Bermudagrass [2, 18]: 100 | Blackgrass plant response rating ([3]; postemergence, 0-100 scale): 0 | Plant response rating, Blackgrass [3, 13]: 50 | Plant response rating, Blackgrass [3, 14]: 50 | Plant response rating, Blackgrass [3, 15]: 80 | Plant response rating, Blackgrass [3, 16]: 80 | Plant response rating, Blackgrass [3, 17]: 100 | Plant response rating, Blackgrass [3, 18]: 100 | Blackgrass plant response rating ([3]; Preemergence, scale 0 to 100): 80 | Plant response rating, Galium [4, 12]: 0 | Plant response rating, Galium ([4]; 31 g ai/ha, 0 to 100 scale, 0 no effect, 100 complete control): 0 | Plant response rating, Galium ([4]; 62 g ai/ha, scale 0 to 100): 0 | Galium plant response rating ([4]; 8 g ai/ha, scale 0 to 100): 0 | Cocklebur plant response rating ([5]; postemergence, 0-100 scale): 0 | Plant response rating, Cocklebur [5, 13]: 0 | Plant response rating, Cocklebur [5, 14]: 0 | Plant response rating, Cocklebur [5, 15]: 0 | Plant response rating, Cocklebur [5, 16]: 0 | Plant response rating, Cocklebur [5, 17]: 0 | Plant response rating, Cocklebur [5, 18]: 0 | Cocklebur plant response rating ([5]; Preemergence, scale 0 to 100): 0 | Corn plant response rating (corn (Zea mays); postemergence, 0-100 scale): 10 | Plant response rating, Corn (corn (Zea mays); [13]): 15 | Plant response rating, Corn (corn (Zea mays); [14]): 15 | Plant response rating, Corn (corn (Zea mays); [15]): 40 | Plant response rating, Corn (corn (Zea mays); [16]): 55 | Plant response rating, Corn (corn (Zea mays); [17]): 70 | Plant response rating, Corn (corn (Zea mays); [18]): 95 | Corn plant response rating (corn (Zea mays); Preemergence, scale 0 to 100): 40 | Bromegrass, Downy plant response rating ([6]; postemergence, 0-100 scale): 0 | Plant response rating, Bromegrass, Downy [6, 13]: 5 | Plant response rating, Bromegrass, Downy [6, 14]: 40 | Plant response rating, Bromegrass, Downy [6, 15]: 50 | Plant response rating, Bromegrass, Downy [6, 16]: 50 | Plant response rating, Bromegrass, Downy [6, 17]: 50 | Plant response rating, Bromegrass, Downy [6, 18]: 90 | Bromegrass, Downy plant response rating ([6]; Preemergence, scale 0 to 100): 0 | Kochia plant response rating (kochia (Kochia scoparia); 8 g ai/ha, postemergence, 0-100 scale): 0 | Plant response rating, Kochia (kochia (Kochia scoparia); 16 g ai/ha, scale 0 to 100): 0 | Plant response rating, Kochia (kochia (Kochia scoparia); 31 g ai/ha, scale 0 to 100, 0 no effect, 100 complete control): 0 | Plant response rating, Kochia (kochia (Kochia scoparia); 62 g ai/ha, scale 0 to 100, 0 no effect, 100 complete control): 0 | Lambsquarters plant response rating ([7]; postemergence, 0-100 scale): 0 | Plant response rating, Lambsquarters [7, 13]: 0 | Plant response rating, Lambsquarters [7, 14]: 0 | Plant response rating, Lambsquarters [7, 15]: 0 | Plant response rating, Lambsquarters [7, 16]: 0 | Plant response rating, Lambsquarters [7, 17]: 0 | Plant response rating, Lambsquarters [7, 18]: 0 | Lambsquarters plant response rating ([7]; Preemergence, scale 0 to 100): 0 | Morningglory plant response rating ([8]; postemergence, 0-100 scale): 0 | Plant response rating, Morningglory [8, 13]: 0 | Plant response rating, Morningglory [8, 14]: 0 | Plant response rating, Morningglory [8, 15]: 0 | Plant response rating, Morningglory [8, 16]: 0 | Plant response rating, Morningglory [8, 17]: 0 | Plant response rating, Morningglory [8, 18]: 0 | Morningglory plant response rating ([8]; Preemergence, scale 0 to 100): 0 | Soybean plant response rating (soybean (Glycine max); postemergence, 0-100 scale): 0 | Plant response rating, Soybean (soybean (Glycine max); [13]): 0 | Plant response rating, Soybean (soybean (Glycine max); [15]): 0 | Plant response rating, Soybean (soybean (Glycine max); [16]): 0 | Plant response rating, Soybean (soybean (Glycine max); [17]): 0 | Plant response rating, Soybean (soybean (Glycine max); [18]): 0 | Soybean plant response rating (soybean (Glycine max); Preemergence, scale 0 to 100): 0 | Surinam Grass plant response rating ([9]; postemergence, 0-100 scale): 70 | Plant response rating, Surinam Grass [9, 13]: 85 | Plant response rating, Surinam Grass [9, 15]: 100 | Plant response rating, Surinam Grass [9, 16]: 100 | Plant response rating, Surinam Grass [9, 17]: 100 | Plant response rating, Surinam Grass [9, 18]: 100 | Surinam Grass plant response rating ([9]; Preemergence, scale 0 to 100): 70 | Wheat plant response rating ([10]; postemergence, 0-100 scale): 0 | Plant response rating, Wheat [10, 13]: 5 | Plant response rating, Wheat [10, 15]: 85 | Plant response rating, Wheat [10, 16]: 0 | Plant response rating, Wheat [10, 17]: 5 | Plant response rating, Wheat [10, 18]: 60 | Wheat plant response rating ([10]; Preemergence, scale 0 to 100): 0 | Nutsedge, Yellow plant response rating ([11]; postemergence, 0-100 scale): 0 | Plant response rating, Nutsedge, Yellow [11, 13]: 0 | Plant response rating, Nutsedge, Yellow [11, 14]: 0 | Plant response rating, Nutsedge, Yellow [11, 15]: 0 | Plant response rating, Nutsedge, Yellow [11, 16]: 0 | Plant response rating, Nutsedge, Yellow [11, 17]: 0 | Plant response rating, Nutsedge, Yellow [11, 18]: 0 | Nutsedge, Yellow plant response rating ([11]; Preemergence, scale 0 to 100): 0
